Experimental data as given in PubChem BioAssay (NCI).
“And” between values parts separate entries of the source, which are not always exact repeats. Equal values may be shown once.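 Where inhibition never reached the appropriate level, the endpoint shown equals the highest concentration tested. Otherwise, values were interpolated linearly from a five-concentration, 48-hour dose response in 96-well plates. The concentration for 50% growth inhibition is given as GI50. TGI is the concentration that stops growth completely.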

Columns and labels:
Experiment in all cases: DTP human tumour cell line panel, 48 h
786-0 renal = test system: 786-0 renal
T-47D breast = test system: T-47D breast
ACHN renal = test system: ACHN renal
U251 CNS = test system: U251 CNS
HOP-92 NSCLC = test system: HOP-92 NSCLC
MALME-3M melanoma = test system: MALME-3M melanoma
SK-OV-3 ovarian = test system: SK-OV-3 ovarian
LOX IMVI melanoma = test system: LOX IMVI melanoma
SK-MEL-28 melanoma = test system: SK-MEL-28 melanoma
SW-620 colon = test system: SW-620 colon

Structure (SMILES): O=c1[nH]cc(CO)c(=O)[nH]1
- GI50 (786-0 renal): > 100000 nM
- TGI (786-0 renal): > 100000 nM
- GI50 (T-47D breast): > 100000 nM
- TGI (T-47D breast): > 100000 nM
- GI50 (ACHN renal): > 100000 nM
- TGI (ACHN renal): > 100000 nM
- GI50 (U251 CNS): > 100000 nM
- TGI (U251 CNS): > 100000 nM
- GI50 (HOP-92 NSCLC): > 100000 nM
- TGI (HOP-92 NSCLC): > 100000 nM
- GI50 (MALME-3M melanoma): > 100000 nM
- TGI (MALME-3M melanoma): > 100000 nM
- GI50 (SK-OV-3 ovarian): > 100000 nM
- TGI (SK-OV-3 ovarian): > 100000 nM
- GI50 (LOX IMVI melanoma): > 100000 nM
- TGI (LOX IMVI melanoma): > 100000 nM
- GI50 (SK-MEL-28 melanoma): > 100000 nM
- TGI (SK-MEL-28 melanoma): > 100000 nM
- GI50 (SW-620 colon): > 100000 nM
- TGI (SW-620 colon): > 100000 nM

Structure (SMILES): COC(=O)c1c2c(c(C)[n+]([O-])c1C)C(=O)C=C(NCc1ccc(Br)cc1)C2=O
- GI50 (786-0 renal): 637 nM
- TGI (786-0 renal): 2230 nM
- GI50 (T-47D breast): 141 nM
- TGI (T-47D breast): 2090 nM
- GI50 (ACHN renal): 575 nM
- TGI (ACHN renal): 2100 nM
- GI50 (U251 CNS): 778 nM
- TGI (U251 CNS): 2460 nM
- GI50 (HOP-92 NSCLC): 1740 nM
- TGI (HOP-92 NSCLC): 3600 nM
- GI50 (MALME-3M melanoma): 154 nM
- TGI (MALME-3M melanoma): 389 nM
- GI50 (SK-OV-3 ovarian): 1520 nM
- TGI (SK-OV-3 ovarian): 3410 nM
- GI50 (LOX IMVI melanoma): 70 nM
- TGI (LOX IMVI melanoma): 1620 nM
- GI50 (SK-MEL-28 melanoma): 987 nM
- TGI (SK-MEL-28 melanoma): 2720 nM
- GI50 (SW-620 colon): 170 nM
- TGI (SW-620 colon): 1710 nM

Structure (SMILES): O=C(NC1CCNCC1)c1[nH]ncc1NC(=O)c1c(Cl)cccc1Cl
- GI50 (786-0 renal): 1000 nM and 543 nM
- TGI (786-0 renal): > 100000 nM
- GI50 (T-47D breast): 1180 nM and 1010 nM
- TGI (T-47D breast): > 100000 nM
- GI50 (ACHN renal): 2950 nM and 3030 nM
- TGI (ACHN renal): > 100000 nM
- GI50 (U251 CNS): 328 nM and 329 nM
- TGI (U251 CNS): > 59700 nM
- GI50 (HOP-92 NSCLC): 323 nM and 222 nM
- TGI (HOP-92 NSCLC): 671 nM
- GI50 (MALME-3M melanoma): 325 nM and 257 nM
- TGI (MALME-3M melanoma): 1680 nM and 1030 nM
- GI50 (SK-OV-3 ovarian): 784 nM and 1420 nM
- TGI (SK-OV-3 ovarian): > 100000 nM
- GI50 (LOX IMVI melanoma): 281 nM and 261 nM
- TGI (LOX IMVI melanoma): > 100000 nM
- GI50 (SK-MEL-28 melanoma): 430 nM and 568 nM
- TGI (SK-MEL-28 melanoma): 2320 nM and 3960 nM
- GI50 (SW-620 colon): 365 nM and 425 nM
- TGI (SW-620 colon): > 10000 nM

Structure (SMILES): COc1cc2c(cc1OCc1ccccc1)N=C[C@@H]1C[C@@H](F)CN1C2=O
- GI50 (786-0 renal): 189 nM
- TGI (786-0 renal): 661 nM
- GI50 (T-47D breast): 577 nM
- TGI (T-47D breast): 18700 nM
- GI50 (ACHN renal): 242 nM
- TGI (ACHN renal): 669 nM
- GI50 (U251 CNS): 154 nM
- TGI (U251 CNS): 400 nM
- GI50 (MALME-3M melanoma): 1580 nM
- TGI (MALME-3M melanoma): 3130 nM
- GI50 (SK-OV-3 ovarian): 2810 nM
- TGI (SK-OV-3 ovarian): 45800 nM
- GI50 (SK-MEL-28 melanoma): 748 nM
- TGI (SK-MEL-28 melanoma): 13700 nM
- TGI (SW-620 colon): 1210 nM

Structure (SMILES): O=S(=O)(CC(O)C(Cl)(Cl)Cl)NNc1ccccc1 (stereo not given)
- TGI (786-0 renal): > 100000 nM
- TGI (T-47D breast): > 100000 nM
- TGI (ACHN renal): > 100000 nM
- TGI (U251 CNS): > 100000 nM
- TGI (HOP-92 NSCLC): > 100000 nM
- TGI (MALME-3M melanoma): > 100000 nM
- TGI (SK-OV-3 ovarian): > 100000 nM
- TGI (LOX IMVI melanoma): > 100000 nM
- TGI (SK-MEL-28 melanoma): > 100000 nM
- TGI (SW-620 colon): > 100000 nM

Structure (SMILES): O=C1NC(=O)C(N2CCc3ccccc32)=C1c1ccc(Cl)cc1
- GI50 (786-0 renal): > 10000 nM
- TGI (786-0 renal): > 14500 nM
- GI50 (T-47D breast): > 25000 nM
- TGI (T-47D breast): > 25000 nM
- GI50 (ACHN renal): > 25000 nM
- TGI (ACHN renal): > 25000 nM
- GI50 (U251 CNS): > 25000 nM
- TGI (U251 CNS): > 25000 nM
- GI50 (HOP-92 NSCLC): 6380 nM
- TGI (HOP-92 NSCLC): > 25000 nM
- GI50 (MALME-3M melanoma): > 25000 nM
- TGI (MALME-3M melanoma): > 25000 nM
- GI50 (SK-OV-3 ovarian): > 25000 nM
- TGI (SK-OV-3 ovarian): > 25000 nM
- GI50 (LOX IMVI melanoma): > 25000 nM
- TGI (LOX IMVI melanoma): > 25000 nM
- GI50 (SK-MEL-28 melanoma): > 25000 nM
- TGI (SK-MEL-28 melanoma): > 25000 nM
- GI50 (SW-620 colon): > 25000 nM
- TGI (SW-620 colon): > 25000 nM

Structure (SMILES): N#Cc1ccc(N2Cc3cc(Cl)ccc3OC3=C2C(=O)N(Cc2ccc(F)cc2)C3=O)cc1
- GI50 (786-0 renal): 578 nM
- TGI (786-0 renal): 1270 nM
- GI50 (T-47D breast): 502 nM
- TGI (T-47D breast): 1180 nM
- GI50 (ACHN renal): 479 nM
- TGI (ACHN renal): 913 nM
- GI50 (U251 CNS): 672 nM
- TGI (U251 CNS): 1680 nM
- GI50 (HOP-92 NSCLC): 580 nM
- TGI (HOP-92 NSCLC): 1320 nM
- GI50 (MALME-3M melanoma): 559 nM
- TGI (MALME-3M melanoma): 1130 nM
- GI50 (SK-OV-3 ovarian): 16200 nM
- TGI (SK-OV-3 ovarian): 55700 nM
- GI50 (LOX IMVI melanoma): 453 nM
- TGI (LOX IMVI melanoma): 908 nM
- GI50 (SK-MEL-28 melanoma): 558 nM
- TGI (SK-MEL-28 melanoma): 1130 nM
- GI50 (SW-620 colon): 411 nM
- TGI (SW-620 colon): 1020 nM
